The series is described as follows: molar heat capacity at constant pressure. The settings on record: 101.33 kPa, Crystal, Small sample (50 mg) DSC.

Numbers after ± are expanded uncertainties.

Consider `O=[N+]([O-])C(=C1NCCN1)[N+](=O)[O-]` [2-(dinitromethylene)-1,3-diazacyclopentane], for which the “molar heat capacity at constant pressure” value reads like this: (283 K) 197.45 ± 4 J/K/mol; (293 K) 202.67 ± 4 J/K/mol; (298 K) 205.28 ± 4.2 J/K/mol; (303 K) 207.89 ± 4.2 J/K/mol; (313 K) 213.29 ± 4.4 J/K/mol; (323 K) 218.52 ± 4.4 J/K/mol. The “molar heat capacity at constant pressure” value by setting is: (333 K) 223.74 ± 4.5 J/K/mol; (343 K) 229.14 ± 4.5 J/K/mol; (353 K) 234.36 ± 4.7 J/K/mol.

As for `CC1CNC(=C([N+](=O)[O-])[N+](=O)[O-])N1` (stereo not given) [2-(dinitromethylene)-4-methylimidazolidine], the “molar heat capacity at constant pressure” value stood at 209.78 ± 4.1 J/K/mol (283 K); 215.8 ± 4.3 J/K/mol (293 K); 218.81 ± 4.3 J/K/mol (298 K); 221.82 ± 4.5 J/K/mol (303 K); 227.84 ± 4.5 J/K/mol (313 K); 233.86 ± 4.7 J/K/mol (323 K). For the same molecule, the “molar heat capacity at constant pressure” value is, setting by setting: (333 K) 239.88 ± 4.9 J/K/mol; (343 K) 245.9 ± 4.9 J/K/mol; (353 K) 251.92 ± 5.1 J/K/mol.

As for `O=[N+]([O-])C(=C1NCCCCN1)[N+](=O)[O-]` [2-(dinitromethylene)-1,3-diazacycloheptane], the “molar heat capacity at constant pressure” value (283 K) is reported as 204.6 ± 4 J/K/mol; the “molar heat capacity at constant pressure” value (293 K) is reported as 211.67 ± 4.2 J/K/mol; the “molar heat capacity at constant pressure” value (298 K) turned out to be 215.31 ± 4.2 J/K/mol; the “molar heat capacity at constant pressure” value (303 K) amounted to 218.75 ± 4.4 J/K/mol; the “molar heat capacity at constant pressure” value (313 K) was 226.03 ± 4.4 J/K/mol; the “molar heat capacity at constant pressure” value (323 K) is listed as 233.1 ± 4.6 J/K/mol. The “molar heat capacity at constant pressure” value runs as follows: (333 K) 240.18 ± 4.9 J/K/mol; (343 K) 247.25 ± 4.9 J/K/mol; (353 K) 254.33 ± 5.1 J/K/mol.

As to `O=[N+]([O-])C(=C1NCCCN1)[N+](=O)[O-]` [2-(dinitromethylene)-1,3-diazacyclohexane], the “molar heat capacity at constant pressure” value reads like this: (283 K) 200.18 ± 4 J/K/mol; (293 K) 205.26 ± 4.1 J/K/mol; (298 K) 207.71 ± 4.1 J/K/mol; (303 K) 210.16 ± 4.1 J/K/mol; (313 K) 215.05 ± 4.3 J/K/mol; (323 K) 220.13 ± 4.3 J/K/mol. The “molar heat capacity at constant pressure” value is, setting by setting: (333 K) 225.02 ± 4.5 J/K/mol; (343 K) 230.1 ± 4.5 J/K/mol; (353 K) 234.99 ± 4.7 J/K/mol.

In the case of `NC(N)=C([N+](=O)[O-])[N+](=O)[O-]` [1,1-diamino-2,2-dinitroethene], the “molar heat capacity at constant pressure” value is, setting by setting: (283 K) 169.55 ± 3.4 J/K/mol; (293 K) 174.14 ± 3.6 J/K/mol; (298 K) 176.51 ± 3.6 J/K/mol; (303 K) 178.73 ± 3.6 J/K/mol; (313 K) 183.32 ± 3.7 J/K/mol; (323 K) 187.91 ± 3.7 J/K/mol. Also, the “molar heat capacity at constant pressure” value turned out to be 192.5 ± 3.9 J/K/mol (333 K), 197.09 ± 4 J/K/mol (343 K) and 201.68 ± 4 J/K/mol (353 K).

The record behind these values is the NIST ThermoML archive (doi:10.1021/acs.jced.5b00021).
